Results: US20220226338A1, “Methods of Treating Cancer Using CHK1 Inhibitors” (Sierra Oncology, Inc., priority 2019, published 2022)
“And” between values parts separate entries of the source, which are not always exact repeats. Identical values can stand only once.

Columns and labels:
Single dose PK, monkey = type: in vivo
Source text: Several studies have been conducted to evaluate the PK properties of SRA737, such as the absorption (in vitro permeability assays and in vivo PK following IV and oral administration), distribution (in vivo tissue distribution and in vitro plasma protein binding) and metabolism (in vitro hepatocyte and CYP inhibition and induction studies) of SRA737.
(§1) The PK of SRA737 have been determined in the mouse, rat, dog and monkey following oral and IV administration (Table 3). […] An acceptable terminal elimination t1/2 was also observed in each species. […] The plasma protein binding of SRA737 at 1 and 10 μM was examined in mouse, minipig, monkey and human plasma using ultracentrifugation and in dog plasma (10 μM) using rapid equilibrium dialysis.

plasma protein = experiment: Plasma protein binding, ultracentrifugation, human plasma; type: in vitro ADME
Experimental: as §1

[1] = system: cryopreserved hepatocytes; experiment: Stability in cryopreserved rat hepatocytes; type: in vitro ADME; conditions: 10 μM, after 4 hours of incubation
Experimental: The formation of SRA737-related metabolites was determined in cryopreserved hepatocytes from human, mouse, rat, dog, minipig and monkey samples after incubation with SRA737 at a nominal concentration of 10 μM for up to 4 hours. […] In the human hepatocyte preparation, approximately 67% of the parent remained after 4 hours of incubation compared to 75% and 7% in the rat and minipig preparations, respectively. Eight human SRA737 metabolites were observed. All SRA737 metabolites formed by human hepatocytes were also formed by monkey hepatocytes. Six metabolites were present at equal or greater abundance in the monkey.

[2] = GLP 28-day repeat oral dose toxicity and toxicokinetics, minipig; type: in vivo
Experimental: Reference source not found.6.
These findings were reversible on cessation of drug administration.
The MTD was 75 mg/kg/day (225 mg/m^2/day) in the mouse and the HNSTD was […] (350 mg/m^2/day) in the minipig.

[3] = Excretion in urine and feces, mice; type: in vivo; conditions: 24-hour collection
Experimental: The excretion of SRA737 has been studied in mice and rats administered SRA737 at either 5 mg/kg IV or 10 mg/kg orally. Urine and feces were collected for a 24-hour period after dosing. In mice, renal excretion of intact SRA737 was consistently low (less than 10% of dose) after both oral and IV administration. Following IV administration of SRA737, less than 8% of the dose was recovered as intact drug in the feces while after oral administration this figure was less than 3%. Excretion of intact SRA737 was lower in the rat than in the mouse with <1% of dose excreted renally over 24 hours and less than 1.5% of dose excreted into the feces over 24 hours.

[4] = Parallel artificial membrane permeability assay (PAMPA); type: in vitro ADME
Experimental: The membrane permeability of SRA737 was assessed in the parallel artificial membrane permeability assay (PAMPA) and Caco-2 assays. Permeability in the PAMPA assay was classified as low.

[5] = system: genetically defined tumors (HGSOC, CRC, mCRPC, NSCLC, SCCHN, SCCA); experiment: SRA737 monotherapy clinical study (SRA737-01), anti-tumor activity per RECIST v1.1; type: in vivo, human
Experimental: An in-human clinical trial is conducted to confirm efficacy of SRA737 monotherapy methods of treatment and patient selection strategies disclosed herein for prospectively-selected genetically-defined subjects with tumor types known to have a high prevalence of genomic alterations expected to sensitize the tumor to Chk1 inhibition (“Cohort Expansion Phase”). The Cohort Expansion Phase consists of 6 indication-specific expansion cohorts of approximately 20 prospectively-selected genetically-defined subjects each. The cohorts are subjects with previously treated metastatic colorectal cancer [CRC], high grade serous ovarian cancer [HGSOC] without CCNE1 gene amplification, HGSOC with CCNE1 gene amplification (or alternative genetic alteration with similar functional effect), metastatic castration-resistant prostate cancer [mCRPC], advanced non-small cell lung cancer [NSCLC], and squamous cell carcinoma of the head and neck [HNSCC], or squamous cell carcinoma of the anus [SCCA]. Subjects are initially administered SRA737 following the dosing regimen established in Example 4. The dosing regimen in some cases changes during the course of the trial.
All subjects who have measurable disease, receive at least one cycle of SRA737 and have a baseline plus at least 1 post-baseline assessment of disease are evaluable for response. Subjects who develop clear evidence of PD without a formal disease assessment and those without a formal disease assessment before study withdrawal are considered non-responders. Complete responses and PRs are required to be confirmed by a subsequent assessment at least 4 weeks later. Stable Disease (SD) determination requires that the relevant criteria be met at least once, a minimum of 6 weeks after the initial dose of SRA737 is given.
Response criteria are defined below: • a. Complete Response (CR): Disappearance of all target lesions. Any pathological lymph nodes (whether target or non-target), in general, have reduction in short axis to <10 mm. • b. Partial Response (PR): At least a 30% decrease in the sum of diameters of target lesions, taking as reference the baseline sum diameters. • c. Progressive Disease (PD): At least a 20% increase in the sum of diameters of target lesions, taking as reference the smallest sum on study (this includes the baseline sum if that is the smallest on study). […] (Note: the appearance of one or more new lesions is also considered progression). • d. Stable Disease (SD): Neither sufficient shrinkage to qualify for PR nor sufficient increase to qualify for PD, taking as reference the smallest sum diameters while on study.
The Cohort Expansion phase was contemporaneously initiated when circulating plasma concentrations of SRA737 exceeded the minimum effective concentration of SRA737 modelled from murine efficacy studies. Thereafter, experience gained in the ongoing Dose Escalation phase informed dose selection for expansion cohorts. The Cohort Expansion phase enrolled subjects with genetically defined tumors that harbored genomic alterations hypothesized to confer sensitivity to Chk1 inhibition, which were prospectively selected by next-generation sequencing (FoundationOne). Subjects with the following tumors were eligible for enrollment: ia) high grade serous ovarian cancer (HGSOC), ib) HGSOC putatively enriched for CCNE1 gene network amplification, ii) colorectal cancer (CRC), iii) metastatic castration-resistant prostate cancer (mCRPC), iv) non-small cell lung cancer (NSCLC), and v) squamous cell carcinomas (head and neck (SCCHN); anus (SCCA)).
Preliminary anti-tumor activity was assessed by target tumor response and overall response in accordance with RECIST v1.1.

[6] = FA/BRCA gene network alterations

For `N#Cc1cnc(Nc2cc(NCC3CNCCO3)c(C(F)(F)F)cn2)cn1` (centres unmarked) [SRA737, 5-[[4-[[morpholin-2-yl]methylamino]-5-(trifluoromethyl)-2-pyridyl]amino]pyrazine-2-carbonitrile], the Foral (Single dose PK, monkey; Monkey oral 2 mg/kg single dose) was 90%, the Foral (Single dose PK, monkey; Monkey oral 10 mg/kg single dose) was 104% and the “Percentage Bound” value (plasma protein; 1 μM) was 87.7%. The “Percentage Free” value (plasma protein; 1 μM) was 12.4%, the “Percentage Bound” value (plasma protein; 10 μM) was 87.2% and the “Percentage Free” value (plasma protein; 10 μM) was 12.8%. The parent remaining [1] was 75%, the “changes in reproductive organs” value ([2]; minipig) was “changes in reproductive organs, particularly the testes, were also observed” and the “toxicological findings in the GI tract” value ([2]; minipig) was “Toxicological findings in the GI tract were also observed”. The dose-dependent toxicological findings ([2]; minipig pivotal study, reversible on cessation of drug administration) was “bone marrow toxicity”, the “renal excretion of intact SRA737” value ([3]; 5 mg/kg IV or 10 mg/kg oral) was “less than 10 % of dose” and the “intact drug recovered in the feces” value ([3]; IV administration) was “less than 8 % of dose”. The “intact drug recovered in the feces” value ([3]; oral administration) was “less than 3 % of dose”, the “permeability in the PAMPA assay” value [4] was “low” and the “confirmed RECIST partial or complete response” value [5] was “no subject had a confirmed RECIST partial or complete response”. For the same compound, the “responses of subjects with unambiguously positive CCNE1 amplification” value ([5]; 4/24 HGSOC subjects) was 3 SD and 1 Progressive Disease (PD), the “subjects with best overall response of SD” value ([5]; 107 subjects treated) was 34 (32%) n (%) and the DCR ([5]; CCNE gene network alterations) was 67%. For the same compound, the DCR [5, 6] was 71%, the DOS [5, 6] was 3.8 cycles and the “Disease Control Rate (DCR)” value ([5]; HGSOC cohort) was 54%. The “maximal target tumor decreases” value ([5]; HGSOC subjects) was 27% and 29%, the “anti-tumor activity by tumor type” value ([5]; HGSOC, CRC, mCRPC and NSCLC tumors) was “Anti-tumor activity was observed” and the DCR ([5]; PI3K gene network alterations (PIK3CA, AKT, PTEN)) was 77%. The PDs ([5]; RAS network mutations) was 15/20, the “duration on study (DOS)” value ([5]; RAS network mutations) was 2 cycles and the “overall average tumor % change” value ([5]; RAS network mutations) was “+20%”. The DCR ([5]; activating mutations in the RAS network) was 25% and the “subjects with durable stable disease (SD) lasting ≥4 months” value ([5]; data cut off 3 May 2019) was 22 (21%) n (%).
